In US20110092476A1, “Bicycloheteroaryl compounds as P2X7 modulators and uses thereof” (Renovis, Inc., priority 2006, published 2011):

The molecules below were run against T1, P2X7 receptor (Homo sapiens, UniProt Q99572) (assay: IL-1β release assay in differentiated THP-1 cells stimulated with BzATP (Example 9)). Settings: 0.1 μM compound (symbols *); differentiated THP-1 cells, BzATP 250 uM; read-out: IL-1β % Inhib. @ 0.3 or 0.1 uM.
T1 construct: host or cells: THP-1 cells differentiated with LPS and IFN-γ
T1 sequence (Q99572 1-595): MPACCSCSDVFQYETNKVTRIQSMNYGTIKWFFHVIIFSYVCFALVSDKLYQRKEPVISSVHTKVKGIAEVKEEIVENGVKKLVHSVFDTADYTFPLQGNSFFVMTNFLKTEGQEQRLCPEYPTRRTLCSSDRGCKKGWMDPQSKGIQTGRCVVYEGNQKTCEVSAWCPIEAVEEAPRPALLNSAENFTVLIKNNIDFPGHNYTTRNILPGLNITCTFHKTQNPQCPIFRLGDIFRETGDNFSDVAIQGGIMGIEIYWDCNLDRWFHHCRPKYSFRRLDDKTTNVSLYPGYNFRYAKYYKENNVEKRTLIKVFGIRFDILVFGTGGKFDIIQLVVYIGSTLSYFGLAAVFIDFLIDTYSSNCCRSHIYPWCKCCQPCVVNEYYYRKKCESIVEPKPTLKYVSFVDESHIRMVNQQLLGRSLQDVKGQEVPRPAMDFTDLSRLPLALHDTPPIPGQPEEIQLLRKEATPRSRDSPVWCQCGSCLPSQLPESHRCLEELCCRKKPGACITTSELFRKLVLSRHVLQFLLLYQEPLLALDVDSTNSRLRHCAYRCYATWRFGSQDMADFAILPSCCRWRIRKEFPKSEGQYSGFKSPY
Type: cell-based
How it was run: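 THP-1 cells differentiated 16 h with 100 ng/mL LPS and 100 ng/mL IFN-γ, primed 2 h with fresh LPS, pretreated 30 min with compound, then stimulated 45 min with 250 uM BzATP (final). Supernatant IL-1β measured by ELISA; background-adjusted percent inhibition fitted to a four-parameter logistic for IC50.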

Question: How did the inhibition at 0.1 µM turn out when CCOc1ccccc1CC(=O)Nc1cccc2c(=O)n(CC(C)O)ccc12 (stereo not shown) [Compound 176] was run?
Answer: 0 to 25%

Question: How did the inhibition at 0.1 µM turn out when COc1ccc(CC(=O)Nc2cccc3c(=O)n(C(C)CO)ccc23)cc1 (stereo not shown) [Compound 110] was run?
Answer: 0 to 25%

Question: CC(O)Cn1ccc2c(NC(=O)c3ccccc3Cl)cccc2c1=O (stereo not shown) [Compound 136] was tested. Which inhibition at 0.1 µM did it give?
Answer: 0 to 25%

Question: With CCOc1ccc(C(=O)Nc2cccc3c(=O)n(CC(C)(C)O)ccc23)c(O)c1 [Compound 185] as the molecule, how does the inhibition at 0.1 µM read?
Answer: 0 to 25%

Question: Cc1ccccc1CC(=O)Nc1cccc2c(=O)n(CC(C)O)ccc12 (stereo not shown) [Compound 157] was tested. Which inhibition at 0.1 µM did it give?
Answer: 0 to 25%

Question: For Cc1c(Cl)cccc1C(=O)Nc1cccc2c(=O)n(CC(C)O)ccc12 (stereo not shown) [Compound 172], which inhibition at 0.1 µM is on record?
Answer: 51 to 75%

Question: How did the inhibition at 0.1 µM turn out when CC(O)Cn1ccc2c(NC(=O)Cc3ccccc3Cl)cccc2c1=O (stereo not shown) [Compound 154] was run?
Answer: 0 to 25%

Question: Which inhibition at 0.1 µM does the source give for Cc1ccc(C(=O)Nc2cccc3c(=O)n(C(C)CO)ccc23)c(C)c1 (stereo not shown) [Compound 99] here?
Answer: 0 to 25%

Question: For Cc1cc(C(=O)Nc2cccc3c(=O)n(CC(C)O)ccc23)ccc1Cl (stereo not shown) [Compound 135], which inhibition at 0.1 µM is on record?
Answer: 0 to 25%

Question: CC(CO)n1ccc2c(NC(=O)c3ccc4c(c3)OCCCO4)cccc2c1=O (stereo not shown) [Compound 117] was tested. Which inhibition at 0.1 µM did it give?
Answer: 0 to 25%

Question: Which inhibition at 0.1 µM does the source give for Cc1cccc(C(=O)Nc2cccc3c(=O)n(CC(C)O)ccc23)c1Cl (stereo not shown) [Compound 182] here?
Answer: 0 to 25%

Question: How did the inhibition at 0.1 µM turn out when COc1cc(CC(=O)Nc2cccc3c(=O)n(C(C)CO)ccc23)cc(OC)c1 (stereo not shown) [Compound 114] was run?
Answer: 0 to 25%

Question: With Cc1cc(C)c(CC(=O)Nc2cccc3c(=O)n(CC(C)(C)O)ccc23)c(C)c1 [Compound 190] as the molecule, how does the inhibition at 0.1 µM read?
Answer: 0 to 25%

Question: For Cc1cccc(C(=O)Nc2cccc3c(=O)n(CC(C)O)ccc23)c1C (stereo not shown) [Compound 140], which inhibition at 0.1 µM is on record?
Answer: 0 to 25%

Question: How did the inhibition at 0.1 µM turn out when CCOc1cccc(C(=O)Nc2cccc3c(=O)n(CC(C)(C)O)ccc23)c1 [Compound 193] was run?
Answer: 0 to 25%

Question: How did the inhibition at 0.1 µM turn out when COc1cccc(CCC(=O)Nc2cccc3c(=O)n(CC(C)(C)O)ccc23)c1 [Compound 189] was run?
Answer: 0 to 25%

Question: For CC(CO)n1ccc2c(NC(=O)Cc3ccc4c(c3)OCO4)cccc2c1=O (stereo not shown) [Compound 113], which inhibition at 0.1 µM is on record?
Answer: 0 to 25%

Same assay, conditions: 0.1 μM compound; differentiated THP-1 cells, BzATP 250 uM; "*" symbols; read-out: IL-1β % Inhib. @ 0.3 or 0.1 uM

Question: Which inhibition at 0.1 µM does the source give for Cc1cc(C)cc(CC(=O)Nc2cccc3c(=O)n(CC(C)(C)O)ccc23)c1 [Compound 226] here?
Answer: 0 to 25%

Question: Cc1ccccc1C(=O)Nc1cccc2c(=O)n(CC(C)(C)O)ccc12 [Compound 200] was tested. Which inhibition at 0.1 µM did it give?
Answer: 0 to 25%

Question: CC(C)(O)Cn1ccc2c(NC(=O)c3ccc4c(c3)OCCCO4)cccc2c1=O [Compound 223] was tested. Which inhibition at 0.1 µM did it give?
Answer: 0 to 25%

Question: For CC(C)(O)Cn1ccc2c(NC(=O)c3ccccc3Cl)cccc2c1=O [Compound 197], which inhibition at 0.1 µM is on record?
Answer: 51 to 75%

Question: For Cc1ccc(CC(=O)Nc2cccc3c(=O)n(CC(C)(C)O)ccc23)cc1 [Compound 216], which inhibition at 0.1 µM is on record?
Answer: 0 to 25%

Question: For Cc1ccc(C)c(C(=O)Nc2cccc3c(=O)n(CC(C)(C)O)ccc23)c1 [Compound 202], which inhibition at 0.1 µM is on record?
Answer: 0 to 25%

Same assay, conditions: 0.3 μM compound (symbols +); differentiated THP-1 cells, BzATP 250 uM; read-out: IL-1β % Inhib. @ 0.3 or 0.1 uM

Question: How did the inhibition at 0.3 µM turn out when Cc1ccc(Cl)c(C(=O)Nc2cccc3c(=O)n(CC4(O)CCCCC4)ccc23)c1 [Compound 51] was run?
Answer: 0 to 25%

Question: Which inhibition at 0.3 µM does the source give for CS(=O)(=O)c1ccc(CC(=O)Nc2cccc3c(=O)n(CCO)ccc23)cc1 [Compound 72] here?
Answer: 0 to 25%

Question: With COc1cccc(CC(=O)Nc2cccc3c(=O)n(CCO)ccc23)c1 [Compound 75] as the molecule, how does the inhibition at 0.3 µM read?
Answer: 0 to 25%

Question: How did the inhibition at 0.3 µM turn out when Cc1ccc(CC(=O)Nc2cccc3c(=O)n(CC4(O)CCCCC4)ccc23)cc1 [Compound 35] was run?
Answer: 26 to 50%

Question: With O=C(Cc1ccccc1F)Nc1cccc2c(=O)n(CC3(O)CCCCC3)ccc12 [Compound 28] as the molecule, how does the inhibition at 0.3 µM read?
Answer: 0 to 25%

Question: For O=C(CCc1cc(C(F)(F)F)cc(C(F)(F)F)c1)Nc1cccc2c(=O)n(CCO)ccc12 [Compound 61], which inhibition at 0.3 µM is on record?
Answer: 0 to 25%

Question: How did the inhibition at 0.3 µM turn out when O=C(Cc1ccccc1)Nc1cccc2c(=O)n(CCO)ccc12 [Compound 76] was run?
Answer: 0 to 25%

Question: O=C(Nc1cccc2c(=O)n(CCO)ccc12)c1ccccc1 [Compound 1] was tested. Which inhibition at 0.3 µM did it give?
Answer: 0 to 25%

Same assay, conditions: 0.3 μM compound; differentiated THP-1 cells, BzATP 250 uM; "+" symbols; read-out: IL-1β % Inhib. @ 0.3 or 0.1 uM

Question: How did the inhibition at 0.3 µM turn out when CC(C)[C@H](C(=O)O)n1ccc2c(NC(=O)[C@@H](C)c3ccc(Cl)cc3)cccc2c1=O [Compound 323, (R)-2-{5-[(S)-2-(4-Chloro-phenyl)-propionylamino]-1-oxo-1H-isoquinolin-2-yl}-3-methyl-butyric acid] was run?
Answer: 51 to 75%

Question: CC(C(=O)Nc1cccc2c(=O)n([C@@H](C)C(N)=O)ccc12)c1ccc(Cl)c(C(F)(F)F)c1 (stereo partly shown) [Compound 356] was tested. Which inhibition at 0.3 µM did it give?
Answer: > 76%

Question: How did the inhibition at 0.3 µM turn out when C[C@H](C(N)=O)n1ccc2c(NC(=O)Cc3cc(F)c(F)c(F)c3)cccc2c1=O [Compound 381] was run?
Answer: > 76%

Question: For C[C@H](C(N)=O)n1ccc2c(NC(=O)Cc3c(F)cccc3C(F)(F)F)cccc2c1=O [Compound 286], which inhibition at 0.3 µM is on record?
Answer: 26 to 50%

Question: C[C@@H](C(N)=O)n1ccc2c(NC(=O)Cc3ccc(F)c(Cl)c3)cccc2c1=O [Compound 346] was tested. Which inhibition at 0.3 µM did it give?
Answer: > 76%

Question: For C[C@H](C(=O)Nc1c(Cl)ccc2c(=O)n([C@H](C)C(N)=O)ccc12)c1ccc(Cl)cc1 [Compound 340], which inhibition at 0.3 µM is on record?
Answer: > 76%

Question: How did the inhibition at 0.3 µM turn out when CC(C)(CO)n1ccc2c(NC(=O)Cc3ccc(C(F)(F)F)cc3F)cccc2c1=O [Compound 370] was run?
Answer: > 76%

Question: Which inhibition at 0.3 µM does the source give for C[C@@H](C(N)=O)n1ccc2c(NC(=O)Cc3ccc(F)c(C(F)(F)F)c3)cccc2c1=O [Compound 348] here?
Answer: > 76%

Question: With CC(C)(CO)n1ccc2c(NC(=O)Cc3ccc(C(F)(F)F)cc3)cccc2c1=O [Compound 363] as the molecule, how does the inhibition at 0.3 µM read?
Answer: 51 to 75%

Question: Which inhibition at 0.3 µM does the source give for C[C@H](CO)n1ccc2c(NC(=O)Cc3ccc(C(F)(F)F)c(F)c3)c(C3CC3)ccc2c1=O [Compound 384, N-[6-Cyclopropyl-2-((R)-2-hydroxy-1-methyl-ethyl)-1-oxo-1,2-dihydro-isoquinolin-5-yl]-2-(3-fluoro-4-trifluoromethyl-phenyl)-acetamide] here?
Answer: > 76%

Question: How did the inhibition at 0.3 µM turn out when C[C@H](C(=O)Nc1cccc2c(=O)n([C@H](C)C(=O)O)ccc12)c1ccc(Cl)cc1 [Compound 322, (R)-2-{5-[(S)-2-(4-Chloro-phenyl)-propionylamino]-1-oxo-1H-isoquinolin-2-yl}-propionic acid] was run?
Answer: 26 to 50%

Question: For NCC(CCl)Cn1ccc2c(NC(=O)Cc3ccc(Cl)c(C(F)(F)F)c3)cccc2c1=O (stereo not shown) [Compound 258, N-[2-(3-Amino-2-chloromethyl-propyl)-1-oxo-1,2-dihydro-isoquinolin-5-yl]-2-(4-chloro-3-trifluoromethyl-phenyl)-acetamide], which inhibition at 0.3 µM is on record?
Answer: > 76%

Question: For C[C@@H](C(N)=O)n1ccc2c(NC(=O)Cc3ccc(Cl)cc3F)cccc2c1=O [Compound 350], which inhibition at 0.3 µM is on record?
Answer: > 76%

Question: For C[C@H](C(N)=O)n1ccc2c(NC(=O)Cc3ccc(Cl)cc3C(F)(F)F)cccc2c1=O [Compound 241], which inhibition at 0.3 µM is on record?
Answer: > 76%

Question: Which inhibition at 0.3 µM does the source give for CC(C)C[C@H](CO)n1ccc2c(NC(=O)Cc3ccc(Cl)c(C(F)(F)F)c3)cccc2c1=O [Compound 280] here?
Answer: > 76%

Question: With C[C@H](C(N)=O)n1ccc2c(NC(=O)Cc3ccc(Cl)cc3F)c(Cl)ccc2c1=O [Compound 343] as the molecule, how does the inhibition at 0.3 µM read?
Answer: 26 to 50%

Question: CC(C)(CO)n1ccc2c(NC(=O)Cc3ccc(C(F)(F)F)cc3C(F)(F)F)cccc2c1=O [Compound 366] was tested. Which inhibition at 0.3 µM did it give?
Answer: 0 to 25%

Question: With CC(C(=O)Nc1cccc2c(=O)n(C[C@H]3CCCN3)ccc12)c1ccc(Cl)cc1 (stereo partly shown) [Compound 242] as the molecule, how does the inhibition at 0.3 µM read?
Answer: 26 to 50%

Question: C[C@@H](C(N)=O)n1ccc2c(NC(=O)Cc3ccc(C(F)(F)F)c(F)c3)cccc2c1=O [Compound 347] was tested. Which inhibition at 0.3 µM did it give?
Answer: > 76%

Question: With C[C@H](C(N)=O)n1ccc2c(NC(=O)Cc3ccccc3F)cccc2c1=O [Compound 294] as the molecule, how does the inhibition at 0.3 µM read?
Answer: 26 to 50%

Same assay, conditions: THP-1 cells, BzATP 250 uM, IL-1β by ELISA

Question: For CC(C(=O)Nc1cccc2c(=O)n(C[C@H]3CCCN3)ccc12)c1ccc(Cl)cc1 (stereo partly shown) [Compound 242], which IC50 is on record?
Answer: 356 nM
